{"source": "patent US20220409580A1", "about": "“METHODS OF TREATING CONDITIONS RELATED TO THE S1P1 RECEPTOR” (Arena Pharmaceuticals, Inc., priority 2019, published 2022)", "format_in_all_cases": "in vivo, human", "key": {"lymphocyte count": {"test_system": "lymphocyte count", "test": "Single-blind, placebo-controlled, randomized study of PK, PD, safety and tolerability: lymphocyte count", "description": "(§1) A single-blind (ie, subject only), placebo-controlled, randomized, fixed-sequence, parallel design study evaluated PK, PD, safety, and tolerability in healthy Japanese and Caucasian male subjects (data reported herein is based on the preliminary clinical study report). A total of 49 subjects were enrolled and received 1 or 2 mg of Compound 1 or placebo once daily for 7 days followed by an additional single dose on Day 15, administered 1 week after a treatment-free period. […] The median percent change from baseline at Day 7 was −23.61% in the Japanese 1 mg group, −25.79% in the Caucasian 1 mg group, −50.00% in the Japanese 2 mg group, and −43.67% in the Caucasian 2 mg group. The median percent change from baseline at Day 15 (pre-dose) was 0.00% in the Japanese 1 mg group, −21.43% in the Caucasian 1 mg group, −6.67% in the Japanese 2 mg group, and −16.23% in the Caucasian 2 mg group. In depth immunophenotyping was performed in healthy subjects."}, "[1]": {"test_system": "circulating B cells, CD4+ TCM, CD4+ TN, Th17, Th2, CD8+ TCM, and CD8+TN cells", "test": "In depth immunophenotyping in healthy subjects (FIG. 3)", "details": "1 or 2 mg once daily, peaked at Day 7 pre-dose", "description": "as §1"}, "[2]": {"test": "Safety and tolerability in adult subjects, including Phase 1 studies with healthy adult subjects", "details": "approximately 281 adult subjects at various doses; single doses up to 5 mg, repeated doses up to 4 mg QD", "description": "(§2) Compound 1, or a pharmaceutically acceptable salt, solvate, or hydrate thereof, is an orally administered, selective, synthetic sphingosine 1-phosphate (S1P) receptor 1, 4, 5 modulator. […] Its safety and tolerability have been evaluated in Phase 1 studies with healthy adult subjects at single doses up to 5 mg and repeated doses up to 4 mg once daily (QD)."}, "UC": {"test_system": "UC", "test": "Phase 2 dose-ranging study in UC patients and open-label extension study", "details": "UC patients", "description": "as §2"}}, "data": [{"molecule": "O=C(O)C[C@H]1CCc2c1[nH]c1ccc(OCc3ccc(C4CCCC4)c(C(F)(F)F)c3)cc21", "note": "[Compound 1, (R)-2-(7-(4-cyclopentyl-3-(trifluoromethyl)benzyloxy)-1,2,3,4-tetrahydrocyclopenta[b]indol-3-yl)acetic acid]", "values": [{"measurement": "median percent change from baseline in lymphocyte count", "setting": "lymphocyte count; Day 7, Caucasian 1 mg group, once daily for 7 days, healthy male subjects", "result": "−25.79", "unit": "%"}, {"measurement": "median percent change from baseline in lymphocyte count", "setting": "lymphocyte count; Day 7, Caucasian 2 mg group, once daily for 7 days, healthy male subjects", "result": "−43.67", "unit": "%"}, {"measurement": "median percent change from baseline in lymphocyte count", "setting": "lymphocyte count; Day 7, Japanese 1 mg group, once daily for 7 days, healthy male subjects", "result": "−23.61", "unit": "%"}, {"measurement": "median percent change from baseline in lymphocyte count", "setting": "lymphocyte count; Day 7, Japanese 2 mg group, once daily for 7 days, healthy male subjects", "result": "−50.00", "unit": "%"}, {"measurement": "median percent change from baseline in lymphocyte count", "setting": "lymphocyte count; Day 15 (pre-dose), after 1 week treatment-free period, Caucasian 1 mg group", "result": "−21.43", "unit": "%"}, {"measurement": "median percent change from baseline in lymphocyte count", "setting": "lymphocyte count; Day 15 (pre-dose), after 1 week treatment-free period, Caucasian 2 mg group", "result": "−16.23", "unit": "%"}, {"measurement": "median percent change from baseline in lymphocyte count", "setting": "lymphocyte count; Day 15 (pre-dose), after 1 week treatment-free period, Japanese 1 mg group", "result": 0.00, "unit": "%"}, {"measurement": "median percent change from baseline in lymphocyte count", "setting": "lymphocyte count; Day 15 (pre-dose), after 1 week treatment-free period, Japanese 2 mg group", "result": "−6.67", "unit": "%"}, {"measurement": "median lymphocyte count", "setting": "lymphocyte count; all treatment groups, from first dose (Day 2) through end of repeated dosing period on Day 8", "result": "Progressive decreases"}, {"measurement": "total lymphocyte count, including Th2 T cells", "setting": "lymphocyte count; healthy subjects, 1 or 2 mg once daily", "result": "dose-dependent decrease"}, {"measurement": "median number of circulating B cells, CD4+ TCM, CD4+ TN, Th17, Th2, CD8+ TCM, and CD8+TN cells", "setting": "[1]", "result": "dose-dependent decrease"}, {"measurement": "safety and tolerability", "setting": "[2]", "result": "safe and well-tolerated"}, {"measurement": "endoscopic and symptomatic improvements versus placebo", "setting": "UC; 2 mg QD for 12 weeks", "result": "clinically meaningful and statistically significant endoscopic and symptomatic improvements"}, {"measurement": "beneficial effects in open-label extension study", "setting": "UC; up to 46 weeks", "result": "Sustained beneficial effects"}]}]}
